Patent US20030216330A1, “Parenteral, intravenous, and oral administration of oxazolidinones for treating diabetic foot infections” (PHARMACIA & UPJOHN, priority 2002, published 2003)

Key:
isolated pathogens = assay: Resistance of pathogens isolated in the trial to study medication; settings: at baseline or developed during the trial
Source text: (§1) Resistance to ampicillin/sulbactam was documented in 1 S. aureus isolate.

diabetic foot infection [1] = assay: Open-label, comparator-controlled trial in patients with diabetic foot infection: clinical cure; assay type: in vivo, human
Source text: (§2) The clinically evaluable population comprised 317 patients, most of whom were male and white with a mean age of 63 years old. Patients with critical limb ischemia were excluded, but those with osteomyelitis could be included. […] Treatment was for 7-28 days with the mean treatment duration shown below in Table 1. Patients could be switched to PO therapy at the investigator's discretion.
(§3) The most common baseline pathogens were S. aureus (158 isolates, 31 of which were methicillin-resistant S. aureus (MRSA), coagulase-negative staphylococci (65), enterococci (60) and Streptococcus agalactiae (52). To cover methicillin-resistant S. aureus in the aminopenicillin regimen, IV vancomycin (1 g every 12 h or per dosing guidelines) was added to the amino/β-LI treated patients with MRSA isolated from the study wound. To cover possible resistant gram-negative rods in either regimen, IV aztreonam (1-2 g, IV, every 8-12 h) was permitted in both treatment arms for suspected/documented gram-negative pathogens. This is shown below in Table 2.
Infections were defined by clinical signs and symptoms and categorized as cellulites, deep soft tissue infections, infected ulcer, septic arthritis, paronychia, abscess or osteomyelitis. […] The most common types (sometimes combined) of infections were: ulcers (78%); cellulitis (45%); deep soft tissue (15%); paronychia (6%). Most patients in both arms were treated as outpatients (66%) with only oral therapy (73%) and with a single agent (87%). Clinical characteristics of the infected sites at baseline were similar in the treatment groups; most common were tenderness (97%), induration (95%), local warmth (92%), non-purulent drainage (82%) and erythema (47%).
Debridement and other surgical procedures (short of complete resection/amputation) were allowed and wounds were off-loaded (mechanical stress on the wounded area was avoided) as needed. There were no significant differences in adverse events in the two treatment arms.

diabetic foot infection [2] = assay: Example 3: parenteral treatment of a human with a diabetic foot infection; assay type: in vivo; settings: 600 mg parenteral, two times daily for 7-28 days; person
Protocol: A 70 kilo […] with a history of diabetes and infected foot ulcerations, also known as diabetic foot, is treated with a parenteral preparation of 600 mg (S)-N-[[3-[3-fluoro-4-[4-(morpholinyl)[…]]-2-oxo-5-oxazolidinyl]methyl]acetamide. The preparation is administered two times daily for 7-28 days. The patient is evaluated by clinical observations and with x-rays for osteomyelitis, including with a “probe-to bone” test and a bone biopsy if the patient has an open wound.

[3] = tested on: Staphylococcus agalactiae; assay: Clinical outcome by baseline pathogen (MITT population); assay type: in vivo; settings: baseline pathogen S. agalactiae
Source text: as §2, §3

[4] = tested on: aerobic gram positive bacteria; settings: including streptococci, MRSA and VRE; cited from earlier work
[5] = tested on: baseline gram-positive pathogen; assay: Microbiological success rate in the diabetic foot infection trial; assay type: in vivo, human
Source text: as §2, §1

CC(=O)NC[C@H]1CN(c2ccc(N3CCOCC3)c(F)c2)C(=O)O1 [Linezolid, (S)-N-[[3-[3-fluoro-4-(4-morpholinyl)phenyl]-2-oxo-5-oxazolidinyl]methyl]acetamide]
resistance of isolated pathogens to the study drug (isolated pathogens): None of the isolated pathogens was resistant | Clinical Efficacy (% Efficacy of the Evaluatable Population) (diabetic foot infection [1]; clinically evaluable population, 317 patients): 83% | clinical outcome versus amino/β-LI (diabetic foot infection [1]; infected ulcers and non-osteomyelitis cases): clinically superior | clinically cured patients (diabetic foot infection [1]; infected ulcers, FIG. 2): 81.4% | Clinical cure rates (diabetic foot infection [1]; intent-to-treat (ITT) and clinically evaluable (CE) populations, FIG. 1): comparable | overall clinical and micro-biological outcomes versus amino/β-LI (diabetic foot infection [1]; mostly given alone, PO, to outpatients): at least as effective overall as amino/β-LI | clinical cure rate (diabetic foot infection [1]; patients with osteomyelitis (n=60)): 61.0% | clinical cure rate (diabetic foot infection [1]; patients without osteomyelitis): 86% | clinical observation of the ulcerated area after the course of treatment (diabetic foot infection [2]): tissue destruction in the ulcerated area has visibly ceased and tissue repair has begun | clinical cure rate versus comparator [3]: significantly higher clinical cure rate | antibacterial activity [4]: active against almost all aerobic gram positive bacteria | microbiological success rates ([5]; microbiologically evaluable (ME) patients): 72.2% | Microbiol. Efficacy (% Efficacy of the Evaluatable Population) ([5]; microbiologically evaluable population, 212 patients): 72%
